Measurements as given in patent US20260297129A1, “PEPTIDES AS SELECTIVE IL-23 RECEPTOR INHIBITORS” (SANOFI, priority 2023, published 2026).
Values after ≈ are worked out from the molar mass of the structure shown. Read-outs that look alike come from different tables or passages of the source. Numbered stars: 1 amine (or outer) side, 2 acyl side, 3 side chain; on linkers, the order of the positions; unused ones are H or OH. Bridge positions count the residues as written; N and C are the ends. Square brackets hold non-standard residues; d marks the D form. Peptide text beside a SMILES is read from it. * marks the point of attachment. Lys(Me,(CH2)4NMe(CH2)5CO) = CN(CCCCCC(=O)[*:3])CCCCN(C)CCCC[C@H](N[*:1])C(=O)[*:2]; Lys(Me,(CH2)4NMe(CH2)4CO) = CN(CCCCC(=O)[*:3])CCCCN(C)CCCC[C@H](N[*:1])C(=O)[*:2]; Trp(7-Me) = Cc1cccc2c(C[C@H](N)C(=O)O)c[nH]c12; NH(2-(3-pyridyl)ethyl) = c1cncc(CCN*)c1; Sebacoyl = O=C(CCCCCCCCC(=O)[*:2])[*:1]; αMeLys(Me2) = CN(C)CCCC[C@](C)(N)C(=O)O; 2Nal = N[C@@H](Cc1ccc2ccccc2c1)C(=O)O; 3Pal = N[C@@H](Cc1cccnc1)C(=O)O; Lys(Me) = CNCCCC[C@H](N)C(=O)O; Aun = NCCCCCCCCCCC(=O)O; Thp = NC1(C(=O)O)CCOCC1; Me2NCH2CH2 = CN(C)CC*; Aib = CC(C)(N)C(=O)O; Sar = CNCC(=O)O

What was measured:
[1] = Solubility of peptide compounds in buffer formulations (Table 5); assay type: physicochemical; conditions: target 1 mg/ml
In short: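 Solubility was quantified by UHPLC-UV, comparing 1:10-diluted filtrate peak areas with a DMSO reference standard and correcting for extinction coefficients. Samples were prepared from dried DMSO stock at 1 mg/mL nominal in pH 1.2 HCl, pH 6.5 or pH 7.4 phosphate (50 mM), and agitated 2 h.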

[2] = Chemical stability (relative purity loss) of peptide compounds in buffer formulations (Table 6); assay type: physicochemical; conditions: 2° C. and 37° C.
In short: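 Compounds at 0.5 mg/mL in 50 mM HCl pH 1.2, 50 mM phosphate pH 6.5 or pH 7.4, each with acetonitrile (3:1), stored 24 hours at 2° C and 37° C. Purity measured by UHPLC-UV before and after. Stability expressed as relative purity loss.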

[3] = Protease stability in simulated intestinal fluids (FaSSIF) (Table 7); assay type: in vitro ADME; conditions: fassif with pancreatin, 37° C.; for remaining at 1 h, 1 µM: 60 min, read-out: Remaining percentage of peptide compound, FaSSIF 60 (min); for remaining at 2 h, 1 µM: 120 min, read-out: Remaining percentage of peptide compound, FaSSIF 120 (min); for remaining at 4 h, 1 µM: 240 min, read-out: Remaining percentage of peptide compound, FaSSIF 240 (min)
In short: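 Percent parent remaining was derived from LC-MS/MS peak areas normalised to time 0, set at 100%. Sampling at 0, 60, 120 and 240 min, quenched in ethanol with 0.1% HCOOH. Final peptide 1 μM, 37° C, SIF containing pancreatin.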

[4] = Protease stability in simulated gastric fluids (FaSSGF) (Table 7); assay type: in vitro ADME; conditions: fassgf with pepsin, 60 min, 37° C., read-out: Remaining percentage of peptide compound, FaSSGF 60 (min)
In short: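 Peptides at 1 μM final were incubated at 37 °C in simulated gastric fluid with pepsin (320 mg per 100 mL SGF concentrate). Samples were quenched with ethanol (0.1% HCOOH) at 0, 60, 120 and 240 min and analysed by LC-MS/MS. Percent remaining is the peak area relative to T0 (100%).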

[5] = test system: IL-23 induced STAT3 signaling (IL-23 receptor) in HEK-Blue IL-23 cells; assay: Inhibition of IL-23 induced STAT3 signaling in HEK-Blue IL-23 cells, SEAP reporter (Table 9); assay type: cell-based; conditions: human IL23 0.25 ng/ml, overnight, read-out: Inhibition of IL-23 induced pSTAT3 (IC50 nM)
In short: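 STAT3-driven SEAP output measured at OD 620–655 nm after 45 min QUANTI-Blue development of supernatant, with dose-response fits. Peptides were given 60 min ahead of 0.25 ng/ml (final) human IL-23, followed by overnight culture at 37 °C; 10,000 HEK-Blue IL-23 cells per well.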

[6] = Buffer pH 1.1 (head; method: 50 mM HCl pH 1.2), 2 h agitation, read-out: Solubility, Buffer pH 1.1
[7] = aqueous buffer, 50 mM phosphate buffer pH 6.5, 2 h agitation, read-out: Solubility, Buffer pH 6.5
[8] = aqueous buffer, 50 mM phosphate buffer pH 7.4, 2 h agitation, read-out: Solubility, Buffer pH 7.4
[9] = 50 mM phosphate buffer pH 6.5 + acetonitrile (3:1), read-out: Chemical stability (relative purity loss), Buffer pH 6.5
[10] = 50 mM phosphate buffer pH 7.4 + acetonitrile (3:1), read-out: Chemical stability (relative purity loss), Buffer pH 7.4
[11] = 50 mm hcl + acetonitrile, Buffer pH 1.1 (head; method: 50 mM HCl pH 1.2 + acetonitrile 3:1), read-out: Chemical stability (relative purity loss), Buffer pH 1.1

Compound	solubility at 2 h [1, 6] [µg/mL]	solubility at 2 h [1, 7] [µg/mL]	solubility at 2 h [1, 8] [µg/mL]	degraded at 24 h [2, 9] [%]	degraded at 24 h [2, 10] [%]	degraded at 24 h [2, 11] [%]	remaining at 1 h, 1 µM [3] [%]	remaining at 2 h, 1 µM [3] [%]	remaining at 4 h, 1 µM [3] [%]	remaining at 1 h, 1 µM [4] [%]	IC50 [5] [nM]
CC(=O)NCCCC[C@@H]1NC(=O)[C@H](Cc2c[nH]c3c(C)cccc23)NC(=O)CCCCCCCCCCNC(=O)CC[C@@H](C(=O)N[C@@H](CC(N)=O)C(=O)N[C@@H](Cc2cccnc2)C(=O)N(C)CC(N)=O)NC(=O)C(C)(C)NC(=O)[C@H](Cc2ccc3ccccc3c2)NC(=O)[C@H](Cc2ccc(OCCN(C)C)cc2)NC(=O)C2(CCOCC2)NC1=O [compound 16] ([Aun][Trp(7-Me)]K(Ac)[Thp]Y(Me2NCH2CH2)[2Nal][Aib]EN[3Pal][Sar]-NH2; lactam N-8)	≥ 950	760 (≈ 458 µM)	260 (≈ 157 µM)	0	0.6	3.8	84	85	84	88	0.37
Cc1cccc2c(C[C@@H]3NC(=O)CCCCN(C)CCCCN(C)CCCC[C@@H](C(=O)NCC(=O)N[C@@H](Cc4cccnc4)C(=O)N(C)CC(N)=O)NC(=O)C(C)(C)NC(=O)[C@H](Cc4ccc5ccccc5c4)NC(=O)[C@H](Cc4ccc(OCCN(C)C)cc4)NC(=O)C4(CCOCC4)NC(=O)[C@H](CCC(N)=O)NC3=O)c[nH]c12 [compound 28] ([Trp(7-Me)]Q[Thp]Y(Me2NCH2CH2)[2Nal][Aib][Lys(Me,(CH2)4NMe(CH2)4CO)]G[3Pal][Sar]-NH2; lactam N-7)	≥ 1200	≥ 1060	≥ 990	0	0	6.7	97	98	98	101	2.14
CC(=O)NCCCC[C@@H]1NC(=O)[C@H](Cc2c[nH]c3c(C)cccc23)NC(=O)CCCCN(C)CCCCN(C)CCCC[C@@H](C(=O)N[C@@H](CC(N)=O)C(=O)N[C@@H](Cc2cccnc2)C(=O)N(C)CC(N)=O)NC(=O)C(C)(C)NC(=O)[C@H](Cc2ccc3ccccc3c2)NC(=O)[C@H](Cc2ccc(OCCN(C)C)cc2)NC(=O)C2(CCOCC2)NC1=O [compound 32] ([Trp(7-Me)]K(Ac)[Thp]Y(Me2NCH2CH2)[2Nal][Aib][Lys(Me,(CH2)4NMe(CH2)4CO)]N[3Pal][Sar]-NH2; lactam N-7)	≥ 950	≥ 1080	≥ 1120	0	0.5	3.6	96	93	84	97	0.53
CC(=O)NCCCC[C@@H]1NC(=O)[C@H](Cc2c[nH]c3c(C)cccc23)NC(=O)CCCCN(C)CCCCN(C)CCCC[C@@H](C(=O)NCC(=O)N[C@@H](Cc2cccnc2)C(=O)N(C)CC(N)=O)NC(=O)C(C)(C)NC(=O)[C@H](Cc2ccc3ccccc3c2)NC(=O)[C@H](Cc2ccc(OCCN(C)C)cc2)NC(=O)C2(CCOCC2)NC1=O [compound 29] ([Trp(7-Me)]K(Ac)[Thp]Y(Me2NCH2CH2)[2Nal][Aib][Lys(Me,(CH2)4NMe(CH2)4CO)]G[3Pal][Sar]-NH2; lactam N-7)	≥ 970	850 (≈ 526 µM)	830 (≈ 513 µM)	0	0	3	96	95	90	99	2.75
CC(=O)NCCCC[C@@H]1NC(=O)[C@H](Cc2c[nH]c3c(C)cccc23)NC(=O)CCCCCN(C)CCCCN(C)CCCC[C@@H](C(=O)N[C@@H](CC(N)=O)C(=O)N[C@@H](Cc2cccnc2)C(=O)N(C)CC(N)=O)NC(=O)[C@](C)(CCCCN(C)C)NC(=O)[C@H](Cc2ccc3ccccc3c2)NC(=O)[C@H](Cc2ccc(OCCN(C)C)cc2)NC(=O)C2(CCOCC2)NC1=O [compound 34] ([Trp(7-Me)]K(Ac)[Thp]Y(Me2NCH2CH2)[2Nal][αMeLys(Me2)][Lys(Me,(CH2)4NMe(CH2)5CO)]N[3Pal][Sar]-NH2; lactam N-7)	≥ 1200	≥ 1120	≥ 1120	0	0	0	98	98	100	94	1.34
CC(=O)NCCCC[C@@H]1NC(=O)[C@H](Cc2c[nH]c3c(C)cccc23)NC(=O)CCCCCCCCCCNC(=O)CC[C@@H](C(=O)N[C@@H](CC(N)=O)C(=O)N[C@@H](Cc2cccnc2)C(=O)N(C)CC(N)=O)NC(=O)C2(CCOCC2)NC(=O)[C@H](Cc2ccc3ccccc3c2)NC(=O)[C@H](Cc2ccc(OCCN(C)C)cc2)NC(=O)C2(CCOCC2)NC1=O [compound 50] ([Aun][Trp(7-Me)]K(Ac)[Thp]Y(Me2NCH2CH2)[2Nal][Thp]EN[3Pal][Sar]-NH2; lactam N-8)	≥ 1180	340 (≈ 200 µM)	130 (≈ 76.4 µM)	0	0.1	3.4	91	92	91	84	0.19
Cc1cccc2c(C[C@@H]3NC(=O)CCCCCCCCC(=O)N(C)CCCC[C@@H](C(=O)NCC(=O)NCCc4cccnc4)NC(=O)C(C)(C)NC(=O)[C@H](Cc4ccc5ccccc5c4)NC(=O)[C@H](Cc4ccc(OCCN(C)C)cc4)NC(=O)C4(CCOCC4)NC(=O)[C@H](CC(C)C)NC3=O)c[nH]c12 [compound 17] ([Trp(7-Me)]L[Thp]Y(Me2NCH2CH2)[2Nal][Aib][Lys(Me)]G-{NH(2-(3-pyridyl)ethyl)}; linker N-7 via Sebacoyl)	≥ 1410	< 10	< 10	0	0	0	95	96	95	13	14.3
